ChEMBL document CHEMBL1201862, “PubChem BioAssay data set” (2004)
Calls of active or inactive are those of the source.

Tests used:
[1] = target: T1, Mu-type opioid receptor (Homo sapiens, UniProt P35372); test: mu opioid receptor activators, image-based, SAR follow-up (AID 2352); format: functional
[2] = target: T2, Delta-type opioid receptor (Homo sapiens, UniProt P41143); test: DOR agonists, SAR follow-up, image-based (AID 2370); format: functional
[3] = target: T3, Kappa-type opioid receptor (Homo sapiens, UniProt P41145); test: kappa opioid receptor blockers, image-based, SAR follow-up (AID 2348); format: functional
[4] = target: T1, Mu-type opioid receptor; test: mu opioid receptor blockers – image-based, SAR follow-up (AID 2420); format: functional;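 further: compounds added before stimulation of receptor with agonist DAMGO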
[5] = target: T3, Kappa-type opioid receptor; test: kappa opioid receptor activation potency – imaging, image-based, SAR follow-up (AID 2359); format: functional
[6] = target: T2, Delta-type opioid receptor; test: delta opioid receptor blockers – image-based, SAR follow-up (AID 2357); format: functional
[7] = target: T3, Kappa-type opioid receptor; test: kappa opioid receptor blockers, cell-based, luminescence, beta-arrestin, SAR follow-up (AID 2285); format: functional
[8] = test system: Streptococcus sp. 'group A'; test: Streptococcus pyogenes SK(-)GAS viability under kanamycin – luminescence, BacTiterGlo, confirmation, counter-screen for streptokinase expression inhibitor project, dose response (AID 1900); format: functional, organism-based
[9] = target: T4, Streptokinase A (Streptococcus pyogenes serotype M1, UniProt P10520); test: viability-normalized secreted streptokinase activity reduction – plasminogen activation absorbance, OD405, dose response (AID 1914); format: functional, Streptococcus pyogenes M1 GAS;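 further: secreted streptokinase activity via plasminogen activation per viability signal from cell pellet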
T4 sequence (P10520 whole entry): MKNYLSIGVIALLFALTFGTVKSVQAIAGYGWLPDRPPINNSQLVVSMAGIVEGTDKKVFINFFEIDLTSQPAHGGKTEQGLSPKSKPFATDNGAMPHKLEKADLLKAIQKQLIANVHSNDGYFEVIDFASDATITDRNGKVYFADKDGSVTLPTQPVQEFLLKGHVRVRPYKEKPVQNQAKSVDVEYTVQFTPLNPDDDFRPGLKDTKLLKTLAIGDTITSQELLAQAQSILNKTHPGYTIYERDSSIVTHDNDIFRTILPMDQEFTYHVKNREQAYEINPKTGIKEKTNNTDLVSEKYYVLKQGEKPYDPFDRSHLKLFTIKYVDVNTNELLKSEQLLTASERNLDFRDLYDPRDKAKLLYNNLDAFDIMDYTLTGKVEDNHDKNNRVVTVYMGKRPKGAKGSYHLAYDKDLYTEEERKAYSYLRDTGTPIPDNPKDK

[10] = Trypanosoma cruzi growth suppression in host cells – NIH3T3 host cells, beta-gal luminescence, confirmation (AID 2044); format: functional, cell-based;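 further: intracellular parasites grown in NIH/3T3 mouse fibroblasts as host cells; luminescent beta-galactosidase reporter signal from transgenic T. cruzi replicating inside host cells; inhibitors lower the luminescence signal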
[11] = target: T3, Kappa-type opioid receptor; format: functional
[12] = NIH3T3 cell viability loss – ATP luminescence, mouse fibroblasts, counter-screen, dose response (AID 2010); format: functional, cell-based;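 further: cells exposed to compound for about 90 hours before reading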
[13] = target: Beta-galactosidase (Escherichia coli, UniProt Q8VNN2); format: functional
[14] = target: T3, Kappa-type opioid receptor; format: functional; remark: listed apart in the source
[15] = test system: Streptococcus; test: GAS UMAA2166 growth inhibition – luminescence, BacTiterGlo, counter-screen for streptokinase expression inhibitor project, dose response (AID 1915); format: functional, organism-based;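 further: potency for reduction of bacterial viability or growth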
[16] = target: T5, Polyadenylate-binding protein 1 (Homo sapiens, UniProt P11940); test: MLLE binding blockers, Cy5 peptide tracer – biochemical, fluorescence polarization, Cy5-PAM2 peptide, secondary, miRNA deadenylation inhibitor project, dose response (AID 602260); format: functional; details: read-out: IC50_Mean
[17] = target: T5, Polyadenylate-binding protein 1; test: MLLE domain peptide-binding blockers, IC50 – biochemical, fluorescence polarization, FITC-PAM2 peptide, dose response (AID 602259); format: functional; details: read-out: IC50_Mean
[18] = loss of viability in HepG2 cells – cell-based, CellTiter-Glo, cherry-picked, cytotoxicity control for Shn3 inhibitor project, dose response (AID 624134); format: functional
[19] = non-specific 3'UTR reporter inhibition in Clone20-Shn3RL – cell-based, Renilla luciferase, cherry-picked, counter-screen for Shn3 inhibitor project, dose response (AID 624133); format: functional
[20] = target: Peroxisome proliferator-activated receptor gamma/Nuclear receptor coactivator 1 (Homo sapiens, UniProt P37231); test: TR-FRET dose response biochemical High Throughput Screening assay for agonists of the steroid receptor coactivator 1 (SRC-1) recruitment by the peroxisome proliferator-activated receptor gamma (PPAR gamma): non-selective agonists. [Related pubchem assays (depositor defined):AID1300, AID1808, AID504735, AID631]; format: protein assay
[21] = target: Peroxisome proliferator-activated receptor gamma/Nuclear receptor coactivator 3 (Homo sapiens, UniProt P37231); test: TR-FRET dose response biochemical High Throughput Screening assay for agonists of the steroid receptor coactivator 3 (SRC-3) recruitment by the peroxisome proliferator-activated receptor gamma (PPAR gamma): non-selective agonists. [Related pubchem assays: 1301 (Confirmation screen.), 1048 (Primary screen.)]; format: functional
[22] = target: Peroxisome proliferator-activated receptor gamma/Nuclear receptor coactivator 2 (Homo sapiens, UniProt P37231); test: TR-FRET dose response biochemical High Throughput Screening assay for agonists of the steroid receptor coactivator 2 (SRC-2) recruitment by the peroxisome proliferator-activated receptor gamma (PPAR gamma): non-selective agonists. [Related pubchem assays: 1297, 1032 ]; format: functional
[23] = target: DNA dC->dU-editing enzyme APOBEC-3A (Homo sapiens, UniProt P31941); test: A3A deaminase inhibition for selectivity – biochemical, dose response (AID 504722); format: functional
[24] = target: Glucose-6-phosphate 1-dehydrogenase (Homo sapiens, UniProt P11413); test: inhibition of Homo sapiens G6PD, dose series – biochemical, fluorescence, selectivity assay for P. falciparum G6PD inhibitor project, dose response (AID 504792); format: functional
[25] = target: DNA dC->dU-editing enzyme APOBEC-3G (Homo sapiens, UniProt Q9HC16); test: Dose Response confirmation of small molecule APOBEC3G DNA Deaminase Inhibitors via a fluorescence-based single-stranded DNA deaminase assay. [Related pubchem assays (depositor defined):AID493012, AID493028]; format: functional
[26] = target: Lysine-specific demethylase 4C (Homo sapiens, UniProt Q9H3R0); test: inhibition of JMJD2C H3K9me3 demethylation – biochemical, DELFIA europium, cherry-picked samples, dose response (AID 488835); format: functional
[27] = target: T6, Mannose-6-phosphate isomerase (Homo sapiens, UniProt P34949); test: MPI inhibition at elevated mannose 6-phosphate – biochemical, fluorescence intensity, high mannose 6-phosphate, primary screen (AID 1220)
T6 sequence (P34949 whole entry): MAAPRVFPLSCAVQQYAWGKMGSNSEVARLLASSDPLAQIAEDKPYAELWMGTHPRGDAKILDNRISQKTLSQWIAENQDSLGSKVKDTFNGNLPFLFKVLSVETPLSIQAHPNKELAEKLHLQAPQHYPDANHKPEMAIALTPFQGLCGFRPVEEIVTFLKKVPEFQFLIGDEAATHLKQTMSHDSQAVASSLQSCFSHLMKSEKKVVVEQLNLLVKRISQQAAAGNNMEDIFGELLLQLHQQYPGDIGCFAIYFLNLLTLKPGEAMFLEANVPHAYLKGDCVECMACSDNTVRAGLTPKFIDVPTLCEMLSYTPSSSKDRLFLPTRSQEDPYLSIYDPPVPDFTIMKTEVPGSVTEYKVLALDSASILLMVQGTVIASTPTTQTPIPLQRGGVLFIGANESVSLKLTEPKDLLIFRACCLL

[28] = viability loss in THP-1 monocytes – THP-1 cells, cytotoxicity control for Vif-APOBEC3G degradation inhibitor project, dose response (AID 1117359); format: functional; details: THP-1
[29] = target: Tumor necrosis factor (Homo sapiens, UniProt P01375); test: analog potency on TNFa NF-kB signaling – cell-based, revised, SAR follow-up (AID 2337); format: functional
[30] = target: T7, Nucleotide-binding oligomerization domain-containing protein 1 (Homo sapiens, UniProt Q9Y239); test: blockers of NOD1 pathway activity – revised, SAR follow-up (AID 2333); format: functional
T7 sequence (Q9Y239 whole entry): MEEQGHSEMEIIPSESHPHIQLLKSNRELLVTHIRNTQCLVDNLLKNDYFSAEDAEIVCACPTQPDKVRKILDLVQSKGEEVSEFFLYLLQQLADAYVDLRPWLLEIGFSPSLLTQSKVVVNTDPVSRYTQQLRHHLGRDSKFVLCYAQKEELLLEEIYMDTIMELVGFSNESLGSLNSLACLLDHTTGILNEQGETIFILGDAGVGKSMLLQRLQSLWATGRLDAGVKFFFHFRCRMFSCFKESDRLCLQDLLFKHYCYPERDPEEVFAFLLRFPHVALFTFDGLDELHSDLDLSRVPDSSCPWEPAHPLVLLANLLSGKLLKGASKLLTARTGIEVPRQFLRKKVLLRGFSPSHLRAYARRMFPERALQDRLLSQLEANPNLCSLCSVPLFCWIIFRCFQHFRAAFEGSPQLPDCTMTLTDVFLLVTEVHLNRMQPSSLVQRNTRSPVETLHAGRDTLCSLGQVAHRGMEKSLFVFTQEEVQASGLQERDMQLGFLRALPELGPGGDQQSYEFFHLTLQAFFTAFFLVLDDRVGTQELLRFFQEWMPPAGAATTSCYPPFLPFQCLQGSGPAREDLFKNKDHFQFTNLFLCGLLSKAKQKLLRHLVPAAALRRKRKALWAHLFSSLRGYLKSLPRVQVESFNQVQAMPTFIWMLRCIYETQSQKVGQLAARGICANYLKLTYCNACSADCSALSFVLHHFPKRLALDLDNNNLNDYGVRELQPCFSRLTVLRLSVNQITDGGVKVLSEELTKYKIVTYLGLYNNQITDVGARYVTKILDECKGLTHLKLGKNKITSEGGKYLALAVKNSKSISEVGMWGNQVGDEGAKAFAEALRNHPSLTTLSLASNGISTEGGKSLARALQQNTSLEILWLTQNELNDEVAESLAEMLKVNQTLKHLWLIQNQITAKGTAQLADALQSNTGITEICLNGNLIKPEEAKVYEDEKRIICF

[31] = test system: HEK293; test: cells; details: Homo sapiens;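 further: cells exposed to compound for 14 hours overnight before viability readout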
[32] = target: Peroxisome proliferator-activated receptor gamma/Nuclear receptor corepressor 2 (Homo sapiens, UniProt P37231+Q9Y618); test: Counterscreen for NR2E3 inverse agonists: TR-FRET-based biochemical high throughput dose response assay to identify inverse agonists of the interaction between peroxisome proliferator-activated receptor gamma (PPARg) and nuclear receptor co-repressor 2 (NCOR2).; format: functional
[33] = target: Photoreceptor-specific nuclear receptor (Homo sapiens, UniProt Q9Y5X4); test: ligands suppressing NR2E3 nuclear receptor activity – biochemical, TR-FRET, dose response (AID 463256); format: functional

T3 sequence (P41145 whole entry): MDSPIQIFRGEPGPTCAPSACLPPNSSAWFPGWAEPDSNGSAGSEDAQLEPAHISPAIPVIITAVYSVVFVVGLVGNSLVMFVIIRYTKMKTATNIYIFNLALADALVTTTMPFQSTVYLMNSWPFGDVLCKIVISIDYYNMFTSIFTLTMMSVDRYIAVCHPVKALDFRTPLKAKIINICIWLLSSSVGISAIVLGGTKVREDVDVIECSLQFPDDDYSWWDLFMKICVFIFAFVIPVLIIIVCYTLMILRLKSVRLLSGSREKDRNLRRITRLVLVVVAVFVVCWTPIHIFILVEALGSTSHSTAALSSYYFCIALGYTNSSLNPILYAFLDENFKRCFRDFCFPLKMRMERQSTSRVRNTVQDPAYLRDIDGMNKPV
T1 sequence (P35372 whole entry): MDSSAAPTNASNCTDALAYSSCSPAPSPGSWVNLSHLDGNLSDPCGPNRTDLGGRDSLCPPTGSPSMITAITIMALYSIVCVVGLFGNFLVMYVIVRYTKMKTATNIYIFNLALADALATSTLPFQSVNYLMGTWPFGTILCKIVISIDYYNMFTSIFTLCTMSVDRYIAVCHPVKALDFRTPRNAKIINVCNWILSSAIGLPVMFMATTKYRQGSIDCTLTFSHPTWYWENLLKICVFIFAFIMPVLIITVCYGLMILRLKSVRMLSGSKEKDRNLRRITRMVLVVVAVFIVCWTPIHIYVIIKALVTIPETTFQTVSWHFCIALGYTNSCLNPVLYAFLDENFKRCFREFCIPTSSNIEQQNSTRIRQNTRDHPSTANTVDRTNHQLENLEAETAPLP
T2 sequence (P41143 whole entry): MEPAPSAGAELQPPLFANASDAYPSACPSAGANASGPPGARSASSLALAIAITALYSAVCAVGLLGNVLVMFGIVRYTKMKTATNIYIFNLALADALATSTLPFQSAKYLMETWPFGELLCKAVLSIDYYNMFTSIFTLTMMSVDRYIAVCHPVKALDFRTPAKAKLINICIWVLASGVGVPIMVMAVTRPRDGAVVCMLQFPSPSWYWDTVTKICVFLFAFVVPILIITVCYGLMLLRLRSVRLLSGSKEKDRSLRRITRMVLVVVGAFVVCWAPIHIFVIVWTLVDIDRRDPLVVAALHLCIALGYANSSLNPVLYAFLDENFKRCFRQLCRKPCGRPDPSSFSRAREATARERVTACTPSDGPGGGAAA
Sequence of Lysine-specific demethylase 4C (Q9H3R0 whole entry): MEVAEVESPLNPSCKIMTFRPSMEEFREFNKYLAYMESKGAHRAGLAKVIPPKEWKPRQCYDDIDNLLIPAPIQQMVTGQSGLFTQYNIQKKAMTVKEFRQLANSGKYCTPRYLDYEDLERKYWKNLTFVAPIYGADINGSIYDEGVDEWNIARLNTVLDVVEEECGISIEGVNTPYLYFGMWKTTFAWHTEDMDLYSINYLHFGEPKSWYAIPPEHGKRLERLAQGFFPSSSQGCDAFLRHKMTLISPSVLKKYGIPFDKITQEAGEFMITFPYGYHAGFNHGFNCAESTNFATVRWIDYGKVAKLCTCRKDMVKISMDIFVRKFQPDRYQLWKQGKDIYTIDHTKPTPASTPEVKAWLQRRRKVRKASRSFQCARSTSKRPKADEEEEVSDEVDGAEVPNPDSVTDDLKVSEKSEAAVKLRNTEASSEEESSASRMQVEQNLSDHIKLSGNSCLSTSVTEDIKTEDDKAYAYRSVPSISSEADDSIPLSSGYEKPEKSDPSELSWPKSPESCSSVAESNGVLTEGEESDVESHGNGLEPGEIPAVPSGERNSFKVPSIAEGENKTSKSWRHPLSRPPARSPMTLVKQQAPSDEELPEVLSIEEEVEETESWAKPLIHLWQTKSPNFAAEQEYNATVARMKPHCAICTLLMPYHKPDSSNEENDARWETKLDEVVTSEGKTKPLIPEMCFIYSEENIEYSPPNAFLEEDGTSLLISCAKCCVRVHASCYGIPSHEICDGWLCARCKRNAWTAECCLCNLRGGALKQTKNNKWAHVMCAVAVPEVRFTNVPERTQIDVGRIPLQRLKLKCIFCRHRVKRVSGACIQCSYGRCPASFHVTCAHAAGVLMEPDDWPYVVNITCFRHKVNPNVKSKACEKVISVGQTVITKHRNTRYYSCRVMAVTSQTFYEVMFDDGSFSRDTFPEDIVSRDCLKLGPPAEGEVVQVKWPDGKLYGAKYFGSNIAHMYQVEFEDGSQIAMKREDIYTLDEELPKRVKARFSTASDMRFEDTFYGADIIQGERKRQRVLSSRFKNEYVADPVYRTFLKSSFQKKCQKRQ
T5 sequence (P11940 whole entry, the tested form may be a part): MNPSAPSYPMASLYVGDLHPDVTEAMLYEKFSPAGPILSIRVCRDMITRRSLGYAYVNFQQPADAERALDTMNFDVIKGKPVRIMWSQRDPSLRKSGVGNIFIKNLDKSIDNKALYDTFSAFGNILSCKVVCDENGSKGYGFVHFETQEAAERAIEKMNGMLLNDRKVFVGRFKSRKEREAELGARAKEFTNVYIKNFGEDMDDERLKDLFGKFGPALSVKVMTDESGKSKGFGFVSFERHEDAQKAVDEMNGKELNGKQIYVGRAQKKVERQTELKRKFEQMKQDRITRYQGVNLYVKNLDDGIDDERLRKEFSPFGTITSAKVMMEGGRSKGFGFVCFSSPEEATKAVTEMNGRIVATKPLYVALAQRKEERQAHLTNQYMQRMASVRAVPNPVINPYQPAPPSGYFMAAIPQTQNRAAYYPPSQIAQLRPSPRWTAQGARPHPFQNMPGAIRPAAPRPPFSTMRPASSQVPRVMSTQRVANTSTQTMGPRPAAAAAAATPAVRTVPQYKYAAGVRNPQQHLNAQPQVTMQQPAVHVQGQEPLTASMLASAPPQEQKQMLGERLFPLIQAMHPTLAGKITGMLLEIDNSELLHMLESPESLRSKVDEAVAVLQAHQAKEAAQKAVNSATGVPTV
Sequence of Peroxisome proliferator-activated receptor gamma/Nuclear receptor coactivator 2 (P37231 whole entry): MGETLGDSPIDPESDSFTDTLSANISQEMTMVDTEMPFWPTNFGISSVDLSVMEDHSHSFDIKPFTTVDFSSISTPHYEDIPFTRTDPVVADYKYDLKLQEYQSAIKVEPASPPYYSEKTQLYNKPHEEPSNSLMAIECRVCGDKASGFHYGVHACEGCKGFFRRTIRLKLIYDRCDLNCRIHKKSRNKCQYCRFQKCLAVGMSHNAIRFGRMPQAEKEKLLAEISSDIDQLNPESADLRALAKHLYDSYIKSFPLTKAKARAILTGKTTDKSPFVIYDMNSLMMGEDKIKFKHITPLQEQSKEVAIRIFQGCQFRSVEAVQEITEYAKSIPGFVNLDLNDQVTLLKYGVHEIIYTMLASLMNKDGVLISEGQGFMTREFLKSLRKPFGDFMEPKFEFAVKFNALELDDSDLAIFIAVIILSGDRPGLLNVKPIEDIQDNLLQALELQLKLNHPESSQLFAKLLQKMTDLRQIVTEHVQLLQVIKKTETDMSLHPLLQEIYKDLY
Sequence of Peroxisome proliferator-activated receptor gamma/Nuclear receptor coactivator 2 (Q15596 whole entry, further chain): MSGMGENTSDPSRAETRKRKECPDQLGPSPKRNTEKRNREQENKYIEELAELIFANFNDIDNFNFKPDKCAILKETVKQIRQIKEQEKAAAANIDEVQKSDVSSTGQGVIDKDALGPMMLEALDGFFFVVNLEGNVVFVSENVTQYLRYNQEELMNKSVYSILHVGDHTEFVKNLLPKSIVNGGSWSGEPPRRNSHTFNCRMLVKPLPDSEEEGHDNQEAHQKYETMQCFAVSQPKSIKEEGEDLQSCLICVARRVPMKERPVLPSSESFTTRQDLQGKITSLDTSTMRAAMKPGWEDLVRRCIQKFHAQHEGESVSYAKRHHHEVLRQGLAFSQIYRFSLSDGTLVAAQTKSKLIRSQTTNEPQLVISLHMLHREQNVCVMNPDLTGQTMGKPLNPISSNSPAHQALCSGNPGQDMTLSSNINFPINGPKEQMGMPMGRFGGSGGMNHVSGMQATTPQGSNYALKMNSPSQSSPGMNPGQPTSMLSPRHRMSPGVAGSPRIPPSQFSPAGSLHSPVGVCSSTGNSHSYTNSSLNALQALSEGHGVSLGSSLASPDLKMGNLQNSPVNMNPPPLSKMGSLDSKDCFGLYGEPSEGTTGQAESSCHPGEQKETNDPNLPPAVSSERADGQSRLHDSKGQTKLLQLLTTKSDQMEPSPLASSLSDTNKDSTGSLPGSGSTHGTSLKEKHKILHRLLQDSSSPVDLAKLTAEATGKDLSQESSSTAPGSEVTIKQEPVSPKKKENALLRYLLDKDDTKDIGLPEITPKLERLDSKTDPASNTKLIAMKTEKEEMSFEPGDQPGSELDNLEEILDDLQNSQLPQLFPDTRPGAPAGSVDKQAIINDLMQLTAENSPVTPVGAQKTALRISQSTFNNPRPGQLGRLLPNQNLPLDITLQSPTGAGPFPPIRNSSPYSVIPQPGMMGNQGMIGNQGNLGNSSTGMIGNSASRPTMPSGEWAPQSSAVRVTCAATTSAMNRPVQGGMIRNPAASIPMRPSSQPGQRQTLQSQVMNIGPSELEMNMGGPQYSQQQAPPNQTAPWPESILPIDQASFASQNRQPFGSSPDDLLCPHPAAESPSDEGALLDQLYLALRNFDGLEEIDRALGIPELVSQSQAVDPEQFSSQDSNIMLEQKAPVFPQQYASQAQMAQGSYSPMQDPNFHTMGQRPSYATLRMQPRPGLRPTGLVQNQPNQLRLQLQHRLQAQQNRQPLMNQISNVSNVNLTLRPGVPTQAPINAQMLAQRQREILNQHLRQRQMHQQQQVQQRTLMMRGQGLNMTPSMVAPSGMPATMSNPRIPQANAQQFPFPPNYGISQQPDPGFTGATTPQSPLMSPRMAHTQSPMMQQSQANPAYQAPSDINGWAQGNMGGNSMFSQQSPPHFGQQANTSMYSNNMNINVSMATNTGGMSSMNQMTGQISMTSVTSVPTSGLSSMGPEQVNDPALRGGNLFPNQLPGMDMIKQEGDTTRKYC
Sequence of Tumor necrosis factor (P01375 whole entry, the tested form may be a part): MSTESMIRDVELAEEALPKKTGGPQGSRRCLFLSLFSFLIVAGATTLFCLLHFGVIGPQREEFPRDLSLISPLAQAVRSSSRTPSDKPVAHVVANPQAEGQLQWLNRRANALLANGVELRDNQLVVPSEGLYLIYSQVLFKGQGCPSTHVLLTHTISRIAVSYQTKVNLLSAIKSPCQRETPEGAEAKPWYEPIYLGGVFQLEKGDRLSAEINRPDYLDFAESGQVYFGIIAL

Compound: Cc1ccc(S(=O)(=O)NCc2ccc(C(=O)N3CCN(Cc4ccccc4)CC3)cc2)cc1
- EC50 [1]: > 32 µM (inactive)
- EC50 [2]: > 32 µM (inactive)
- IC50 [3]: > 32 µM (inactive)
- IC50 [4]: > 32 µM (inactive)
- EC50 [5]: > 32 µM (inactive)
- IC50 [6]: > 32 µM (inactive)
- IC50 [7]: > 10 µM (inactive)

Compound: O=C(NC(NC(=S)Nc1c(Cl)cc(Cl)cc1Cl)C(Cl)(Cl)Cl)OCc1ccccc1 (centres undefined)
- EC50 [8]: 0.562 µM (active)
- EC50 [9]: 1.83 µM (active)
- EC50 [10]: 1.65 µM (active)
- IC50 [11]: 1.88 µM (active)
- EC50 [12]: > 60 µM (not active)
- EC50 [13]: > 31.5 µM (inactive)
- IC50 [14]: 0.63 µM
- EC50 [15]: 39.3 µM (inconclusive)
- EC50 [1]: > 32 µM (inactive)
- EC50 [2]: > 32 µM (inactive)
- IC50 [3]: 0.517 µM (active)
- IC50 [4]: > 32 µM (inactive)
- EC50 [5]: > 32 µM (inactive)
- IC50 [6]: > 32 µM (inactive)
- IC50 [7]: 0.846 µM (active)
- IC50 [16]: > 66 µM (inactive)
- IC50 [17]: > 66 µM (inactive)
- AC50 [18]: 18.5 µM (active)
- AC50 [19]: 2.04 µM (active)

Compound: Cn1c(=O)cc(SCC(=O)NCc2ccco2)c2ccccc21
- EC50 [20]: > 79.4 µM (inactive)
- EC50 [21]: > 79.4 µM (not active)
- EC50 [22]: > 79.4 µM (not active)

Compound: O=S(=O)(Nc1ccccc1F)c1cccc(NC(=S)NCCN2CCOCC2)c1
- IC50 [23]: > 100 µM (inactive)
- IC50 [24]: > 80 µM (inactive)
- IC50 [25]: 7.38 µM (active)
- AC50 [26]: 8.95 µM (active)

Compound: Oc1cccc(/C=N/NC(=S)NCCN2CCOCC2)c1O
- IC50 [27]: 23.6 µM (active)
- AC50 [26]: 4.02 µM (active)
- CC50 [28]: 17.9 µM (active)

Compound: COC(=O)CC1=NN(c2nc3ccccc3s2)C(=O)/C1=C(/C)Nc1ccc(Cl)cc1
- IC50 [29]: 0.0369 µM (active)
- IC50 [30]: < 0.0391 µM (active)
- IC50 [31]: > 20 µM (inactive)

Compound: COc1ccc(-c2cn3c(C)c(C(=O)Nc4cc(NC(C)=O)ccc4OC)sc3n2)cc1
- EC50 [20]: 12.9 µM (inactive)
- EC50 [21]: > 79.4 µM (not active)
- IC50 [32]: 18 µM (not active)
- IC50 [33]: 23.2 µM (not active)
- EC50 [22]: 15 µM (not active)
